According to PubChem BioAssay (NCI):
“And” between values parts separate entries of the source, which are not always exact repeats. Equal entries are not always repeated.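 Values below derive from 48-hour exposures of cells grown in 96-well plates, with endpoints linearly interpolated between the two concentrations bracketing the appropriate inhibition level. Here, GI50 denotes the concentration required for 50% inhibition of growth. TGI is the concentration that stops growth completely.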

Columns and labels:
Test in all cases: NCI-60 cell line screen, 48 h
A498 renal = system: A498 renal
CAKI-1 renal = system: CAKI-1 renal
HCC-2998 colon = system: HCC-2998 colon
M14 melanoma = system: M14 melanoma
SF-539 CNS = system: SF-539 CNS
SK-MEL-28 melanoma = system: SK-MEL-28 melanoma
SNB-75 CNS = system: SNB-75 CNS
UACC-257 melanoma = system: UACC-257 melanoma
SR leukemia = system: SR leukemia
TK-10 renal = system: TK-10 renal

Compound	TGI (A498 renal)	TGI (CAKI-1 renal)	TGI (HCC-2998 colon)	TGI (M14 melanoma)	TGI (SF-539 CNS)	TGI (SK-MEL-28 melanoma)	TGI (SNB-75 CNS)	TGI (UACC-257 melanoma)	TGI (SR leukemia)	TGI (TK-10 renal)	GI50 (CAKI-1 renal)	GI50 (M14 melanoma)	GI50 (SF-539 CNS)	GI50 (SK-MEL-28 melanoma)	GI50 (SNB-75 CNS)	GI50 (TK-10 renal)	GI50 (UACC-257 melanoma)	GI50 (HCC-2998 colon)	GI50 (SR leukemia)
O=C(NCCCCCCCCCCCCNC(=O)c1cnc2ccccc2n1)c1cnc2ccccc2n1	> 100 µM	> 100 µM	> 100 µM	> 100 µM	36.8 µM	> 100 µM	49.3 µM	> 100 µM	–	–	–	–	–	–	–	–	–	–	–
CC(=O)NNc1nc(C)c(C(=O)NNC(=O)C(=O)Nc2ccc(Cl)c([N+](=O)[O-])c2)s1	–	> 100 µM	> 100 µM	> 100 µM	> 100 µM	> 100 µM	–	> 100 µM	> 100 µM	> 100 µM	–	–	–	–	–	–	–	–	–
CC12Nc3ccccc3C1=C(c1ccccc1)CC1C(=O)OC(=O)C12 (centres undefined)	–	–	> 100 µM	> 100 µM	> 100 µM	> 100 µM	73.7 µM	> 100 µM	–	> 100 µM	–	–	–	–	–	–	–	–	–
COc1ccc(C(c2ccccc2C(=O)O)c2ccc(OC)c3ccccc23)c2ccccc12	39 µM	63.4 µM	19.8 µM	33 µM	24.4 µM	–	–	24.5 µM	–	45.3 µM	–	–	–	–	–	–	–	–	–
COc1ccc2[nH]c(Cl)c(/C=C3/C(=O)Nc4ccccc43)c2c1	–	1.75 µM	–	1.23 µM	0.731 µM	5.47 µM	0.659 µM	11.2 µM	–	8.74 µM	0.673 µM	0.254 µM	0.483 µM	0.459 µM	0.252 µM	1.06 µM	0.984 µM	–	–
CC(=O)OC1C[C@H]2C(OC(=O)c3ccccc3)C3C4(OC(C)=O)COC4C[C@H](OC(C)=O)[C@@]3(C)C(OC(C)=O)[C@H](OC(C)=O)C(=C1C)C2(C)C (some centres undefined)	> 100 µM	31.4 µM	–	> 100 µM	> 100 µM	> 100 µM	45.2 µM	> 100 µM	–	> 100 µM	–	–	–	–	–	–	–	–	–
Cc1ccc2c(c1)[n+](=O)c(C(=O)c1cccs1)c(C(F)(F)F)n2[O-]	–	3.43 µM and 4.07 µM	2.1 µM and 0.559 µM	50 µM and 26.2 µM	2.36 µM	50 µM and 22.6 µM	17.3 µM	–	50 µM	3.22 µM	0.856 µM and 0.395 µM	2.99 µM and 4.32 µM	0.997 µM	5.31 µM and 2.91 µM	2.86 µM	0.718 µM	2.28 µM and 0.237 µM	0.638 µM and 0.238 µM	0.152 µM
Cc1noc2cccc(O)c12	> 100 µM	> 100 µM	> 100 µM	> 100 µM	> 100 µM	> 100 µM	> 100 µM	> 100 µM	–	> 100 µM	–	–	–	–	–	–	–	–	–
CC(=O)OCCOCn1c2ccccc2c2c3c(c4c5ccccc5n(COCCOC(C)=O)c4c21)C(=O)N(Cc1ccccc1)C3=O	> 100 µM	–	> 100 µM	> 100 µM	> 100 µM	> 100 µM	> 100 µM	> 100 µM	–	> 100 µM	–	–	–	–	–	–	–	–	–
CC1(C)OB(c2ccc(N(CCOS(C)(=O)=O)CCOS(C)(=O)=O)cc2)OC1(C)C	–	18.4 µM	49 µM	13.7 µM	29.9 µM	> 83.7 µM	49.3 µM	> 60.5 µM	1.02 µM	56.4 µM	1.79 µM	3.01 µM	7.55 µM	34 µM	22.1 µM	18.9 µM	21.6 µM	15.7 µM	0.0234 µM
